{
  "source": "paper PMC7072008",
  "about": "(ACS infectious diseases, 2020)",
  "key": {"schistosomes": {"tested_on": "schistosomes", "conditions": "cited from earlier work"}, "TGR [1]": {"biological_target": "T1, TGR (Schistosoma mansoni, UniProt Q962Y6)", "T1 sequence (Q962Y6 1-598)": "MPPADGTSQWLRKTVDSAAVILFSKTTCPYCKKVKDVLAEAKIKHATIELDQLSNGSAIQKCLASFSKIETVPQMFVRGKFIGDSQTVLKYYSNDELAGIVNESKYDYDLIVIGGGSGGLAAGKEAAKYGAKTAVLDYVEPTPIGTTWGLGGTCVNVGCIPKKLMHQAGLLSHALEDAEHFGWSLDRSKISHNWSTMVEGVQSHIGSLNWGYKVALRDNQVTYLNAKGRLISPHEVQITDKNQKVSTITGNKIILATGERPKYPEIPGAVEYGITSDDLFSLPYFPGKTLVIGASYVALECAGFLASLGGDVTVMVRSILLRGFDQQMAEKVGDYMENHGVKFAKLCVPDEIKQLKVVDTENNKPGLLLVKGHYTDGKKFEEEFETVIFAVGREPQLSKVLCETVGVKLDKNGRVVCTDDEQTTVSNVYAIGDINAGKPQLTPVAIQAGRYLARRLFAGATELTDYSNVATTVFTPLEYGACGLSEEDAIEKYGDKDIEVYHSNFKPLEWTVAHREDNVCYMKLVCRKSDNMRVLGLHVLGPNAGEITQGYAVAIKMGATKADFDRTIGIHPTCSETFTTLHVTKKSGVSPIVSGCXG", "test": "NADPH oxidase activity of inhibited TGR", "assay_type": "biochemical"}, "parasites": {"tested_on": "parasites", "conditions": "5 μM (physiological concentration); cited from earlier work"}, "TGR [2]": {"biological_target": "T1, TGR", "test": "NADPH-dependence and reversibility of TGR inhibition", "assay_type": "biochemical"}},
  "data": [
    {"smiles": "CC(=O)OC[C@H]1O[C@@H]([S-])[C@H](OC(C)=O)[C@@H](OC(C)=O)[C@@H]1OC(C)=O.CCP(CC)CC.[Au+]", "note": "[auranofin]", "values": [
      {"measurement": "Cure of infected mice", "setting": "schistosomes", "result": "partially cure infected mice"},
      {"measurement": "H2O2 production compared with untreated TGR", "setting": "TGR [1]; Amplex Red and horseradish peroxidase", "result": "same low amounts of H2O2 as untreated TGR"},
      {"measurement": "Decrease of NADPH consumption compared with uninhibited TGR", "setting": "TGR [1]; after treatment and desalting", "result": "about 50%"},
      {"measurement": "Killing of parasites in culture", "setting": "parasites", "result": "kill parasites rapidly"},
      {"measurement": "TGR inhibition in the absence of NADPH", "setting": "TGR [2]; compounds at 20 times the IC50, TGR 50 nM, incubation without NADPH, desalting", "result": "found to inhibit TGR"},
      {"measurement": "Reversibility of TGR inhibition", "setting": "TGR [2]; incubation with NADPH, activity 30 minutes and 3 hours after desalting", "result": "irreversible inhibitors of TGR"}
    ]}
  ]
}
